Measured values: patent US7432045B2 (priority 2003, dated 2008)
Like-named read-outs stand apart in the source and are kept apart here. Peptide text beside a SMILES is read from it. * marks the point of attachment. Biotin = O=C1N[C@H]2[C@H](CS[C@H]2CCCCC(=O)*)N1; Ahx = NCCCCCC(=O)O

How the values were obtained:
cornea = test: In vivo peptide toxicity, cornea; parameters: species or system BALB/C mice; settings: mouse, in vivo
Experimental: (i) Cornea: Four-6-week-old female BALB/C mice (Harlan Sprague Dawley, Indianapolis, Ind.) were anesthetized by halothane inhalation (3-5%). A 2.0 μL drop of serum-free 5×DMEM solution containing 6.1 mM EB, 6.1 mM EBX, 7.5 mM TAT-C, 7.5 mM n50,51 TAT-C, 7.5 mM TAT-Cd, or 11.2 mM bHOMd or serum-free DMEM only (control) was then placed on the cornea and the mice were returned to their cages. Each group consisted of 5 mice, except for 11.2 mM bHOMd, and 7.5 mM TAT-Cd, which consisted of 4 mice. Only the right eye in each mouse received the peptide. Treatments were given 4 times per day at least 2 hrs apart for 7 days. On days 1, 5, and 7, the mice were examined microscopically for evidence of blepharitis, punctate keratopathy, dendrite ulceration and geographic ulceration. Damage to the corneal epithelium was assessed by staining with 1.0% […] and examination under a microscope with blue light. Blepharitis was scored: 1+ for noticeable puffy eyelids, 2+ for puffy eyelids with moderate crusting, 3+ for eye 50% swollen shut with severe crusting, and 4+ for eye totally swollen and crusted shut (Brandt et al., 1992). Punctate keratopathy, dendrite ulceration, and geographic ulceration were scored: 1+ for <25% of the cornea involved, 2+ for 25-50% involved, 3+ for 50-75% involved, and 4+ for >75% involved. The mean disease score for each group of mice on each day was calculated by the sum of disease scores in each group on each day divided by the numbers of mice in that group. On day 7, following the last treatment, the mice were sacrificed and the eyes were removed, fixed in 10% formalin, embedded in paraffin, sectioned (5μ each), and stained with hematoxylin and eosin as we have described previously (Brandt et al., 1996). Sections were then examined for evidence of damage to the cornea, sclera, lens, and retina.

[1] = test system: Vero, HeLa, CV-1PD, TM-1, DP-9, CEMx174, NIKS, W12E cells; test: MTS assay, eight cell lines; settings: eight cell lines
HSV-1 KOS mutant hrR3 [2] = test: LacZ+ virus (hrR3) entry assay with pre-adsorbed virus (entry block); type: cell-based
Experimental: LacZ^+ virus (hrR3) entry assay: Confluent Vero cell cultures in 96-well microtiter plates were switched to Hepes-buffered serum-free DMEM, cooled on ice to 4° C. for 30 min, and infected with hrR3 for 1 hour at 4° C. in 40 μL of medium. Unattached virus was removed by rinsing with ice-cold medium. Treatments with antiviral peptide SEQ ID NO:1, referred to as EB, or a control peptide which comprised the RRKK tetra-peptide (SEQ ID NO:16) attached to a scrambled version of the membrane transiting peptide RRKKLAALPLVLAAPLAVLA (SEQ ID NO:17) (referred to as EBX), or mock-treatments with peptide-free medium were carried out in serum-free DMEM as indicated. Virus entry was initiated by transferring cultures to 37° C. To inactivate any remaining extracellular virus, cultures were rinsed with PBS and exposed to low pH citrate buffer (40 mM citric acid, 10 mM KCl, 135 mM NaCl, pH 3.0, according to Highlander et al., J. Virol. 61:3356 (1987), for 1 min at 23° C. The citrate was rinsed off with PBS and cultures were maintained in serum-supplemented DMEM until they were fixed with 0.5% gluteraldehyde in 5×PBS for 30 min at 23° C., stained for β-galactosidase activity for 1 hour or overnight at 23° C. with X-gal (Fisher Biotech; BP1615-1) in 1×PBS containing […], 1.3 mM K4Fe(CN)6, and 1.3 mM K3Fe(CN)6, and scored for the presence of blue […] cells.
In these studies, the hrR3 virus was pre-adsorbed to cells for 1 hour at 4° C. before ice cold 25 μM EB or EBX were added in serum-free DMEM. After an additional 1 hour at 4° C., cultures were shifted to 37° C. to initiate virus entry. At 15 min intervals following the temperature shift, any virus remaining outside the cells was inactivated by washing the cultures with low pH citrate buffer. Cultures were then rinsed and returned to peptide-free serum-supplemented DMEM until they were fixed and stained for β-galactosidase 8 hours after the temperature shift.
(§1) Two assays were used to assess the ability of the TAT peptides to inhibit infection of Vero cells with the hrR3 virus. In both assays, the virus was preadsorbed to cells at 4° C. and entry was initiated in the presence of peptide by shifting the cultures to a permissive temperature (30-37° C.). One hour later, the peptide was rinsed off. The entry blocking activity was measured in half of the cultures, in which any extracellular virus remaining after the peptide treatment was inactivated with low pH citrate buffer. The rest of the cultures were exposed to PBS instead of citrate buffer and used to measure virus inactivation. Virus inactivation depended on persistent effects of the peptide lasting for a period of eight hours. At the end of that period, all cultures were fixed and infected cells were detected by staining with X-gal.
(§2) Virus (m.o.i.=0.025) was preadsorbed to Vero cells for 1 h at 4° C. before cultures were exposed to TAT-C (FIG. 15A), bTAT-9X (FIG. 15B), or n50,51TAT-C (FIGS. 15C, 15D) for 1 h at 33 (FIGS. 15A, 15B), 31 (FIG. 15C), or 37° C. (FIG. 15D). […] Inhibition of entry was measured in the citrate-treated cultures, in which any remaining external virus was inactivated immediately following exposure to peptide (●). Persistent virus inactivation lasting, at least in part, for the 8 h period following exposure to peptide, was measured in the PBS-treated cultures (◯). The IC50s measured in these experiments are included in Table 5.

hrR3 = test: Virucidal assay; type: cell-based, HSV-1
Experimental: […] The treated virus was diluted 200-fold with serum-supplemented DMEM and assayed for infectivity approximately 1 hour later in microtiter wells seeded with Vero cells (3.5×10^4 cells/well) 1 d earlier. Forty or 100 microliter volumes of diluted virus were adsorbed for 1 or 2 h at 37° C. and lacZ^+ cells were scored 8 hours later. In some experiments, aliquots of diluted virus were first dialyzed (Spectra/Por; MWCO 12-14,000) overnight at 4° C. against a 60-fold excess volume of Hepes-buffered serum-supplemented DMEM or forced by syringe through 0.22 μm membranes (Millex-GV; Millipore) before the remaining infectious virus was assayed.

HSV-1 KOS mutant hrR3 [3] = test: Inactivation of pre-adsorbed virus (virus inactivation); type: cell-based
Experimental: as §1, §2

hrR3 virions = test: Inactivation of virions in solution; type: cell-based, HSV-1; settings: 37° C.; read-out: Inactivation of Virions 37° C. IC50
Experimental: Inactivation of virions: To assess the ability of peptides to inactivate virions, 3-4×10^6 pfu/mL of virus was mixed on ice with peptide in serum-free DMEM and incubated for 1 h at 4 or 37° C. Aliquots (10 μL) were diluted 1000-fold into peptide-free serum-supplemented DMEM at 23° C. and 50 μL aliquots were assayed in triplicate for infectivity in Vero cell cultures (dilution assay). Alternatively, 10 μL aliquots were diluted into 1 mL of ice-cold peptide-free serum-supplemented DMEM and the virus was pelleted as described above (centrifugation assay). Viral pellets were then resuspended in 250 μL serum-supplemented DMEM and 50 μL aliquots were assayed in triplicate for infectivity in Vero cell cultures.
Some of the virus diluted without the addition of NaCl was pelleted immediately (Control), while the rest of the diluted virus was stored at 4° C. and pelleted 19 h later. The virus was pelleted and assayed for infectivity as described in Example 1.

HSV-1 KOS mutant hrR3 [4] = settings: read-out: inhibition of hrR3 infection IC50; serum-free conditions
HSV-1 KOS [5] = test: Plaque reduction assay; type: cell-based
Experimental: Cell culture and virus: The procedures for growing Vero cells and preparing high titer stocks of HSV-1 KOS as described in Grau et al., Invest. Ophthal. and Vis. Sci. 30: 2474 (1989) were utilized. Vero cells were maintained in carbonate-buffered DMEM supplemented with 5% calf serum and 5% fetal bovine serum (regular medium). For some studies, cells were switched to serum-free DMEM buffered with 25 mM HEPES (pH 7.4) and allowed to adapt to that medium for 30 min prior to experimental treatments. Vero cells were seeded into wells (0.28 cm^2) of microtiter plates either at 3.5×10^4 cells/well for use 1 day later (8×10^4 cells/well) or at 1×10^4 cells/well for use 3 days later (2×10^5 cells/well).
Plaque reduction assay: Confluent Vero cell cultures in microtiter plates were infected for 1 hour at 37° C. in 40 μL of medium. Except where indicated, peptide treatments in 40 μL of medium lasted from 1 hour before through 1 hour after infection. At the end of the adsorption period, the cultures were re-fed with 100 μL of regular medium. Plaque formation was scored 2 days later and the number of plaques scored per well was normalized to the number counted in the absence of peptide. Using an ocular micrometer, plaque size (π/2×L×S) was determined by measuring the largest plaque diameter (L) and the diameter at a 90° angle to that (S). The size of each of the first 40 scored plaques was measured except when a plaque included less than 10 rounded cells or touched the side of the well.

in vitro = settings: African green monkey
HSV-1 KOS [6] = settings: data not shown

Question: For `CC(C)C[C@H](NC(=O)[C@H](CCCCN)NC(=O)[C@H](CCCCN)NC(=O)[C@H](CCCNC(=N)N)NC(=O)[C@@H](N)CCCNC(=N)N)C(=O)N[C@@H](C)C(=O)N[C@@H](C)C(=O)N[C@@H](CC(C)C)C(=O)N1CCC[C@H]1C(=O)N[C@@H](CC(C)C)C(=O)N[C@H](C(=O)N[C@@H](CC(C)C)C(=O)N[C@@H](C)C(=O)N[C@@H](C)C(=O)N1CCC[C@H]1C(=O)N[C@@H](CC(C)C)C(=O)N[C@@H](C)C(=O)N[C@H](C(=O)N[C@@H](CC(C)C)C(=O)N[C@@H](C)C(=O)O)C(C)C)C(C)C` [EBX, RRKKLAALPLVLAAPLAVLA, reference compound] (H-RRKKLAALPLVLAAPLAVLA-OH), which corneal pathology (cornea) is on record?
Answer: Its corneal pathology is “no evidence of corneal pathology”.

Question: And the “cytotoxicity to cells (MTS), overall” value [1]?
Answer: The value was “generally not cytotoxic”.

Question: What about the IC50 (HSV-1 KOS mutant hrR3 [2]; FIG. 7B, read-out: inhibition of entry of pre-adsorbed virus IC50) of the same molecule?
Answer: Its IC50 is about 100 µM.

Question: What about the cytotoxic effects (Vero cells) of the same molecule?
Answer: The cytotoxic effects was “No cytotoxic effects”.

Question: Which results are given for `CC(C)C[C@H](NC(=O)CNC(=O)[C@H](CC(N)=O)NC(=O)[C@H](C)NC(=O)[C@H](Cc1ccc(O)cc1)NC(=O)[C@@H](NC(=O)[C@H](CC(=O)O)NC(=O)CNC(=O)[C@@H]1CCCN1C(=O)[C@H](CCCNC(=N)N)NC(=O)[C@H](CCCNC(=N)N)NC(=O)[C@H](CCCNC(=N)N)NC(=O)[C@H](CCC(N)=O)NC(=O)[C@H](CCCNC(=N)N)NC(=O)[C@H](CCCNC(=N)N)NC(=O)[C@H](CCCCN)NC(=O)[C@H](CCCCN)NC(=O)[C@H](CCCNC(=N)N)NC(=O)CNC(=O)[C@H](Cc1ccc(O)cc1)NC(=O)CCCCCNC(=O)CCCC[C@@H]1SC[C@@H]2NC(=O)N[C@@H]21)C(C)C)C(=O)N[C@H](C(=O)N[C@@H](C)C(=O)O)C(C)C` [bTAT-9X, b - YGRKKRRQRRR-9x] ({Biotin-Ahx}-YGRKKRRQRRRPGDVYANGLVA-OH)?
Answer: Virucidal Activity 4° C. IC50 (hrR3; 4° C.): None; Virucidal Activity 37° C. IC50 (hrR3; 37° C.): None; IC50 (HSV-1 KOS mutant hrR3 [3]; 33° C., read-out: Inactivation of Pre-Adsorbed Virus 33° C. IC50): 200 µM; IC50 (HSV-1 KOS mutant hrR3 [3]; 33° C., read-out: Virus Inactivation IC50 (pre-adsorbed virus)): 200 µM; IC50 (HSV-1 KOS mutant hrR3 [3]; 33° C., read-out: virus inactivation IC50): 200 µM; IC50 (HSV-1 KOS mutant hrR3 [3]; 37° C., read-out: Inactivation of Pre-Adsorbed Virus 37° C. IC50): 63 µM; extent of inhibition of entry (HSV-1 KOS mutant hrR3 [2]; 33° C.): ~90%; IC50 (HSV-1 KOS mutant hrR3 [2]; 33° C., read-out: Entry Block 33° C. IC50): 2 µM; IC50 (HSV-1 KOS mutant hrR3 [2]; 33° C., read-out: Entry Block IC50): 2 µM; IC50 (HSV-1 KOS mutant hrR3 [2]; 33° C., read-out: inhibition of entry IC50): 2 µM; IC50 (HSV-1 KOS mutant hrR3 [2]; 37° C., read-out: Entry Block 37° C. IC50): 8.7 µM; IC50 (HSV-1 KOS mutant hrR3 [2]; read-out: Entry Blocking Activity IC50): 67 µM; IC50 (hrR3 virions): > 1200 µM

Question: Which IC50 (HSV-1 KOS mutant hrR3 [4]) does the source give for `N=C(N)NCCC[C@H](NC(=O)[C@@H](N)CCCNC(=N)N)C(=O)N[C@@H](CCCCN)C(=O)N[C@@H](CCCCN)C(=O)O` [R-R-K-K tetramer, R-R-K-K, reference compound] (H-RRKK-OH; N-terminus and C-terminus assumed) here?
Answer: The IC50 was 1300 µM.

Question: And the “concentration with no antiviral activity” value (HSV-1 KOS [5]; presence of serum)?
Answer: Its value is over 200 µM.

Question: For `CC(C)C[C@H](NC(=O)[C@H](C)NC(=O)[C@H](CCCCN)NC(=O)[C@H](CC(C)C)NC(=O)[C@H](C)NC(=O)[C@H](CC(C)C)NC(=O)[C@H](CCCCN)NC(=O)[C@H](CC(C)C)NC(=O)[C@H](C)NC(=O)[C@H](CC(C)C)NC(=O)[C@H](CCCCN)NC(=O)CCCCCNC(=O)CCCC[C@@H]1SC[C@@H]2NC(=O)N[C@@H]21)C(=O)N[C@@H](CCCCN)C(=O)N[C@@H](C)C(=O)N[C@@H](C)C(=O)N[C@@H](CC(C)C)C(=O)N[C@@H](CCCCN)C(=O)N[C@@H](CC(C)C)C(=O)N[C@@H](C)C(N)=O` [bKLA, b - KLALKLALKALKAALKLA-amide], which IC50 (in vitro) is on record?
Answer: Its IC50 is 15 µM.

Question: And the “cytotoxic effects (trypan blue staining)” value (MDCK cells)?
Answer: Its value is “No cytotoxic effects”.

Question: With “NH2 - RRKKAAVALLAVLLALLAPP-COOH (H-RRKKAAVALLAVLLALLAPP-OH) [EBPP]” as the molecule, how does the “activity compared to EB in yield reduction assay” value (HSV-1 KOS [6]) read?
Answer: The value was “twice as active”.

Question: And the “antiviral activity compared to EB” value (HSV-1 KOS [5])?
Answer: The value was “twice as active”.
